Experimental data published in patent US9573898B2, “Pyridine derivates and their use as Umami tastants” (Givaudan S.A., priority 2011, dated 2017).

Tests used:
Type in all cases: in vivo, human
[1] = tested on: professional panel composed of 2 women and 2 men; assay: Tasting of NaCl/ribonucleotide solutions by a professional panel (Example 4); conditions: 10 ppm compound in 0.5% NaCl and 0.002% ribonucleotide mixture vs the same solution without compound
Method: Three solutions were prepared: • A—a solution of 0.5% NaCl and 0.002% Ribonucleotide mixture, • B—a solution of 0.5% NaCl, 0.002% Ribonucleotide mixture and 10 ppm of 2-(4-ethylphenoxy)-N-(pyridin-2-ylmethyl)acetamide, • C—a solution of 0.5% NaCl, 0.002% Ribonucleotide mixture and 10 ppm of 2-(4-isopropylphenoxy)-N-(pyridin-2-ylmethyl)acetamide.
The samples were tasted by a professional panel composed of 2 women and 2 men aged between 30 and 60.

[2] = tested on: professional panel composed of 2 women and 3 men; assay: Tasting of NaCl solutions by a professional panel (Example 2)
Method: Two solutions were prepared: • A—a solution of 0.3% NaCl and 0.05% MSG, • B—a solution of 0.3% NaCl and 1 ppm of 2-(2,3-dihydro-1H-inden-5-yloxy)-N-(pyridin-2-ylmethyl)acetamide.
The samples were tasted by a professional panel composed of 2 women and 3 men aged between 30 and 60. The panel agreed that both solutions tasted umami.

[3] = tested on: professional panel composed of 2 women and 3 men; assay: Tasting of NaCl/MSG/ribonucleotide solutions by a professional panel (Example 3); conditions: solution B (0.5% NaCl, 0.05% MSG, 0.010% ribonucleotide mixture, 2 ppm compound) vs solution A (0.5% NaCl, 0.15% MSG, 0.025% ribonucleotide mixture)
Method: Two solutions were prepared: • A—a solution of 0.5% NaCl, 0.15% MSG and 0.025% Ribonucleotide mixture, • B—a solution of 0.5% NaCl, 0.05% MSG, 0.010% Ribonucleotide mixture and 2 ppm of 2-(2,3-dihydro-1H-inden-5-yloxy)-N-(pyridin-2-ylmethyl)acetamide.
The samples were tasted by a professional panel composed of 2 women and 3 men aged between 30 and 60.

[4] = tested on: small group of flavourists (2 male, 2 female); assay: Tomato soup tasting by flavourists (Example 5); conditions: tomato soup containing 2 ppm compound vs reference soup
Method: A tomato soup mix was prepared from 9.4 g of sodium chloride, 1 g of mono sodium glutamate, 0.08 g ribonucleotides (ex yeast), 32 g of tomato powder (ex Spreda), 25.1 g of glucose, 21 g of starch (Ultrasperse® 5 ex National Starch), 5 g of palm fat powder, 3 g of yeast powder, 1 g of onion powder, 0.15 g of carrot powder, 0.05 g of ground white pepper, 0.3 g celery extract powder, 0.05 g of ground laurel leaf powder, and 1.85 g of sucrose.
25 g of the well mixed ingredients was added to 250 g of boiling water and stirred until completely dissolved.
The reference soup was compared with a batch of the same soup containing 2 ppm of 2-(2,3-dihydro-1H-inden-5-yloxy)-N-(pyridin-2-ylmethyl)acetamide.

[5] = tested on: trained sensory panel composed of 20 women; assay: Potato chips tasting by a trained sensory panel (Example 6)
Method: Plain potato chips were prepared. • One part was flavoured with 1.2% sodium chloride (sample A). • One part was flavoured with 1.2% sodium chloride and 0.3% mono sodium glutamate (sample B). • One part was flavoured with 1.2% sodium chloride and 5 ppm 2-(2,3-dihydro-1H-inden-5-yloxy)-N-(pyridin-2-ylmethyl)acetamide (sample C).
The samples A, B and C were tasted by a trained sensory panel composed of 20 women aged between 30 and 60.

[6] = tested on: small group of flavourists (2 male, 2 female); assay: Diluted soy sauce tasting by flavourists (Example 7); conditions: sample A: Kikkoman soy sauce diluted 10 times, 1.5 ppm compound
Method: Kikkoman® soy sauce was diluted 10 times with tap water. One part of the base soy sauce was taken as the reference. To another part (called sample A) 1.5 ppm of 2-(2,3-dihydro-1H-inden-5-yloxy)-N-(pyridin-2-ylmethyl)acetamide was added. To a third part (called sample B) 0.5 ppm of 2-(2,3-dihydro-1H-inden-5-yloxy)-N-(pyridin-2-ylmethyl)acetamide and 1 ppm of 1-(2-hydroxy-4-methoxyphenyl)-3-(pyridin-2-yl)propan-1-one were added.

[7] = solution B (0.3% NaCl, 1 ppm compound) vs solution A (0.3% NaCl, 0.05% MSG)

## CC(C)c1ccc(OCC(=O)NCc2ccccn2)cc1 [2-(4-isopropylphenoxy)-N-(pyridin-2-ylmethyl)acetamide]
[1]
  umami strength compared with solution A: stronger umami strength

## CCc1ccc(OCC(=O)NCc2ccccn2)cc1 [2-(4-ethylphenoxy)-N-(pyridin-2-ylmethyl)acetamide]
[1]
  umami strength compared with solution A: stronger umami strength

## O=C(COc1ccc2c(c1)CCC2)NCc1ccccn1 [2-(2,3-dihydro-1H-inden-5-yloxy)-N-(pyridin-2-ylmethyl)acetamide]
[2]; [7]
  further taste notes compared with solution A: more succulence and sweetness and had more lingering notes
  umami strength compared with solution A: slightly stronger umami
[2]; solution B: 0.3% NaCl and 1 ppm compound
  umami taste of solution: tasted umami
[3]
  umami strength compared with solution A: equal umami strength
[4]
  complexity of taste compared with base soup: tasted more complex
  umami taste compared with base soup: more umami
[5]; sample C (1.2% sodium chloride, 5 ppm compound) vs sample A (1.2% NaCl) and sample B (1.2% NaCl, 0.3% MSG)
  panel preference: preferred over the other two samples
[5]; sample C: 1.2% sodium chloride and 5 ppm compound
  taste description: salty, umami, long lasting, savory
[6]
  complexity compared with base soy sauce: more complex
  umami and sweet taste compared with base soy sauce: more umami and slightly more sweet

## N[C@@H](CCC(=O)O)C(=O)[O-].[Na+] [MSG, mono sodium glutamate, reference compound]
[2]; solution A: 0.3% NaCl and 0.05% MSG
  umami taste of solution: tasted umami
[5]; sample B: 1.2% sodium chloride and 0.3% mono sodium glutamate
  taste description: salty and umami
